Experimental data as given in patent publication US20250179210A1, “ANTI-CEACAM5 ANTIBODIES AND CONJUGATES AND USES THEREOF” (Merck Patent GmbH, priority 2022, published 2025).
Values joined by “and” are separate entries in the source; they are usually repeats but may differ in a detail not shown here. Equal values may be shown once.

Key:
[1] = test system: SK-CO-1; assay: Viability assay (Cell Titer-Glo); type: cell-based; settings: Homo sapiens
Protocol: (§1) Cytotoxicity effects of the ADC on the cancer cell lines were measured by cell viability assays. Cells were seeded in a volume of 90 μL in 96-well plates the day before treatment. Test compounds (ADCs or free payloads) were formulated at 10-fold the starting concentration in cell culture medium. Test compounds were serial diluted (1:4) and 10 μL of each dilution was added to the cells in triplicates. Plates were cultured at 37° C. in a CO2 incubator for six days. For cell viability measurement, Cell Titer-Glo® reagent (Promega™ Corp, Madison, WI) was added to each well, and plates processed according to the manufacturer's instructions. Luminescence signals were measured using a Varioskan plate reader (Thermo Fisher). Luminescence readings were converted to % viability relative to untreated cells. Data was fitted with non-linear regression analysis, using log (inhibitor) vs. response, variable slope, 4-parameter fit equation using GraphPad Prism. […] Geometric mean values of IC50s derived from multiple experiments were calculated.
(§2) Cytotoxicity effects of the ADC on the cancer cell lines were measured by cell viability assays. […] Luminescence signals were measured using a Varioskan plate reader (Thermo Fisher). Luminescence readings were converted to % viability relative to untreated cells. […] Geometric mean values of IC50s derived from multiple experiments were calculated.

[2] = test system: SNU-16; assay: Viability assay (Cell Titer-Glo); type: cell-based, human
Protocol: as §1, §2

[3] = test system: LS174T; assay: Viability assay (Cell Titer-Glo); type: cell-based; settings: Homo sapiens
Protocol: as §1, §2

[4] = test system: MKN-45; assay: Viability assay (Cell Titer-Glo); type: cell-based; settings: Homo sapiens
Protocol: as §1, §2

[5] = test system: MDA-MB-231; assay: Viability assay (Cell Titer-Glo); type: cell-based; settings: Homo sapiens, MDA-MB-231, 144 h; Table 2; six days; geometric mean; N ≥ 3; CEACAM5 Negative
Protocol: as §1, §2

[6] = test system: MDA-MB-468; assay: Viability assay (Cell Titer-Glo); type: cell-based; settings: Homo sapiens, Table 2
Protocol: Cytotoxicity effects of the ADC on the cancer cell lines were measured by cell viability assays. Cells were seeded in a volume of 90 μL in 96-well plates the day before treatment. Test compounds (ADCs or free payloads) were formulated at 10-fold the starting concentration in cell culture medium. Test compounds were serial diluted (1:4) and 10 μL of each dilution was added to the cells in triplicates. Plates were cultured at 37° C. in a CO2 incubator for six days. For cell viability measurement, Cell Titer-Glo® reagent (Promega™ Corp, Madison, WI) was added to each well, and plates processed according to the manufacturer's instructions. Luminescence signals were measured using a Varioskan plate reader (Thermo Fisher). Luminescence readings were converted to % viability relative to untreated cells. Data was fitted with non-linear regression analysis, using log (inhibitor) vs. response, variable slope, 4-parameter fit equation using GraphPad Prism. Data is shown as % relative cell viability vs. molar compound concentration, error bars indicating standard deviation (SD) of triplicates. Geometric mean values of IC50s derived from multiple experiments were calculated.

[7] = background; cited from earlier work
[8] = test system: CEACAM5 from Macaca fascicularis; settings: background; cited from earlier work
[9] = test system: MKN45 cells; assay: Internalization assay using Cell Discoverer (pHrodo labeled antibodies); type: cell-based, human
From the text: A relevant characteristic of an ADC is its internalization into a target-expressing cell and lysosomes, and thus internalization is a relevant property of antibodies to be used as part of ADCs. Antibody internalization rate into the late endosome and lysosome (low pH vesicles) can be monitored by directly labeling the antibodies with a pH-sensitive dye (pHrodo) which emits strong fluorescence at a pH lower than 6.0 upon excitation. This fluorescence can be imaged in the Cell-Discoverer7 (Zeiss) and internalization rate can be calculated.
To analyze the internalization rates of several antibodies, MKN45 cells were seeded in a 96 well, dark, flat clear bottom plate (Cellvis) at 25,000 cells/well. Cells were cultivated over night with 100 μl/well of RMPI-1640+10% FBS (Thermo). Cell media was removed, and cells were stained with 100 μl of 10 μg/ml Hoechst dye diluted in PBS×1 for 15 min at room temperature (RT) in the dark. Cells were then washed twice with PBS×1. […]
Internalization of pHrodo labeled antibodies into the late endosomes and lysosomes of cells was imaged by Cell-Discoverer7 (Zeiss) using fluorescence at excitation of 567 nm and emission detector of 592/25 nm. […]
Fluorescence of each well was recorded every 20 min for 20 h. Analysis of Sum Fluorescence Intensity per cell (SFI) was calculated by the Zen Software (ZEN3.1) and Excel analysis of linear regression.

Sequence of CEACAM5 from Macaca fascicularis (as listed by the source): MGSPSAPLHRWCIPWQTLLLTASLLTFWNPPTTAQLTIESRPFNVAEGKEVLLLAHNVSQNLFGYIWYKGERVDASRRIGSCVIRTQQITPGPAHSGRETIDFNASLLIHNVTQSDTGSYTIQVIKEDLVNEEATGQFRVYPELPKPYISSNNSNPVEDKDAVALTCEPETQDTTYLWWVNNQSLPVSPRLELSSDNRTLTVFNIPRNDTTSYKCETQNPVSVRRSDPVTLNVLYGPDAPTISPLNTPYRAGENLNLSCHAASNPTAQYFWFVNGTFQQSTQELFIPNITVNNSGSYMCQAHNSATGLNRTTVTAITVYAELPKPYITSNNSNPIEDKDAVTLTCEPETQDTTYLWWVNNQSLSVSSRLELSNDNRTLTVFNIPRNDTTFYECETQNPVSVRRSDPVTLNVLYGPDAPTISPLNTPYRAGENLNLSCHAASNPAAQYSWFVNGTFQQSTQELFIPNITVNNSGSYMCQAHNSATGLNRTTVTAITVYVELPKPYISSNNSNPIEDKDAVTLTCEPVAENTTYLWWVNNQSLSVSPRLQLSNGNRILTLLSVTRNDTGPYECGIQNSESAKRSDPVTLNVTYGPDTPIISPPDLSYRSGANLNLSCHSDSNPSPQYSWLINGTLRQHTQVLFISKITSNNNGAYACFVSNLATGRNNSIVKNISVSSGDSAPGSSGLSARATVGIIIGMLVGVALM

Compound: CC[C@@]1(O)C(=O)OCc2c1cc1n(c2=O)Cc2c-1nc1cc(F)c(C)c3c1c2[C@@H](N)CC3 [PAYLOAD, (1S,9S)-1-Amino-9-ethyl-5-fluoro-1,2,3,9,12,15-hexahydro-9-hydroxy-4-methyl-10H,13H-benzo(de)pyrano(3′,4′:6,7)indolizino(1,2-b)quinoline-10,13-dione, reference compound]
- IC50 ([1]; SK-CO-1, 144 h, Table 2, six days, geometric mean, N ≥ 4, CEACAM5 Positive): 250 pM
- Emax ([1]; SK-CO-1, Table 2, at the highest tested compound concentration, read-out: SK-CO-1 maximal effect compared to untreated controls): -99%
- IC50 ([2]; Homo sapiens, SNU-16, 144 h, Table 2, six days, geometric mean, N ≥ 3, CEACAM5 Positive): 440 pM
- SNU-16 maximal effect compared to untreated controls ([2]; Table 3, at the highest tested compound concentration): (−99%)
- IC50 ([3]; 144 h, Table 2, six days, geometric mean, N ≥ 3, CEACAM5 Positive): 530 pM
- Emax ([3]; Table 2, at the highest tested compound concentration, read-out: LS174T maximal effect compared to untreated controls): -88%
- IC50 ([4]; MKN-45, 144 h, Table 2, six days, geometric mean, N ≥ 3, CEACAM5 Positive): 890 pM
- Emax ([4]; MKN-45, Table 2, at the highest tested compound concentration, read-out: MKN-45 maximal effect compared to untreated controls): -96%
- IC50 [5]: 930 pM
- IC50 ([6]; MDA-MB-468, 144 h, six days, geometric mean, N ≥ 2, CEACAM5 Negative): 210 pM
- Emax ([6]; MDA-MB-468, at the highest tested compound concentration, read-out: MDA-MB-468 maximal effect compared to untreated controls): -99%

Compound: Labetuzumab govitecan
- stability of the linker structure after parenteral application [7]: significant instability of the linker structure

Compound: hmn-14: known anti-CEACAM5 antibody as in labetuzumab govitecan; HC SEQ ID NO: 27, LC SEQ ID NO: 28 [reference compound]
- cross-reactivity with CEACAM5 from Macaca fascicularis [8]: not cross-reacting with CEACAM5 from Macaca fascicularis
- average binding rate ([9]; average of the three slopes of the linear part of the curve): 22268±3060
- Slope of Curve ([9]; linear part (700 to 1200 minutes) of fluorescence intensity per cell, 100 nM pHrodo labeled antibody, single wells): 23701 and 24350 and 18754
